Results on 66 molecules are retold here after patent US9006450B2 (Boehringer Ingelheim International GmbH, priority 2010, dated 2015).

One may read the pIC50 as the IC50 on a negative log10 scale, so that one unit is a factor of ten.

pIC50: −log10 of the molar value.

The experiment deals with T1, human ACC2 (Homo sapiens, UniProt O00763).
T1 construct: made in house; host or cells: insect cells (baculoviral expression system)
T1 sequence (O00763 129-2458 limits assumed): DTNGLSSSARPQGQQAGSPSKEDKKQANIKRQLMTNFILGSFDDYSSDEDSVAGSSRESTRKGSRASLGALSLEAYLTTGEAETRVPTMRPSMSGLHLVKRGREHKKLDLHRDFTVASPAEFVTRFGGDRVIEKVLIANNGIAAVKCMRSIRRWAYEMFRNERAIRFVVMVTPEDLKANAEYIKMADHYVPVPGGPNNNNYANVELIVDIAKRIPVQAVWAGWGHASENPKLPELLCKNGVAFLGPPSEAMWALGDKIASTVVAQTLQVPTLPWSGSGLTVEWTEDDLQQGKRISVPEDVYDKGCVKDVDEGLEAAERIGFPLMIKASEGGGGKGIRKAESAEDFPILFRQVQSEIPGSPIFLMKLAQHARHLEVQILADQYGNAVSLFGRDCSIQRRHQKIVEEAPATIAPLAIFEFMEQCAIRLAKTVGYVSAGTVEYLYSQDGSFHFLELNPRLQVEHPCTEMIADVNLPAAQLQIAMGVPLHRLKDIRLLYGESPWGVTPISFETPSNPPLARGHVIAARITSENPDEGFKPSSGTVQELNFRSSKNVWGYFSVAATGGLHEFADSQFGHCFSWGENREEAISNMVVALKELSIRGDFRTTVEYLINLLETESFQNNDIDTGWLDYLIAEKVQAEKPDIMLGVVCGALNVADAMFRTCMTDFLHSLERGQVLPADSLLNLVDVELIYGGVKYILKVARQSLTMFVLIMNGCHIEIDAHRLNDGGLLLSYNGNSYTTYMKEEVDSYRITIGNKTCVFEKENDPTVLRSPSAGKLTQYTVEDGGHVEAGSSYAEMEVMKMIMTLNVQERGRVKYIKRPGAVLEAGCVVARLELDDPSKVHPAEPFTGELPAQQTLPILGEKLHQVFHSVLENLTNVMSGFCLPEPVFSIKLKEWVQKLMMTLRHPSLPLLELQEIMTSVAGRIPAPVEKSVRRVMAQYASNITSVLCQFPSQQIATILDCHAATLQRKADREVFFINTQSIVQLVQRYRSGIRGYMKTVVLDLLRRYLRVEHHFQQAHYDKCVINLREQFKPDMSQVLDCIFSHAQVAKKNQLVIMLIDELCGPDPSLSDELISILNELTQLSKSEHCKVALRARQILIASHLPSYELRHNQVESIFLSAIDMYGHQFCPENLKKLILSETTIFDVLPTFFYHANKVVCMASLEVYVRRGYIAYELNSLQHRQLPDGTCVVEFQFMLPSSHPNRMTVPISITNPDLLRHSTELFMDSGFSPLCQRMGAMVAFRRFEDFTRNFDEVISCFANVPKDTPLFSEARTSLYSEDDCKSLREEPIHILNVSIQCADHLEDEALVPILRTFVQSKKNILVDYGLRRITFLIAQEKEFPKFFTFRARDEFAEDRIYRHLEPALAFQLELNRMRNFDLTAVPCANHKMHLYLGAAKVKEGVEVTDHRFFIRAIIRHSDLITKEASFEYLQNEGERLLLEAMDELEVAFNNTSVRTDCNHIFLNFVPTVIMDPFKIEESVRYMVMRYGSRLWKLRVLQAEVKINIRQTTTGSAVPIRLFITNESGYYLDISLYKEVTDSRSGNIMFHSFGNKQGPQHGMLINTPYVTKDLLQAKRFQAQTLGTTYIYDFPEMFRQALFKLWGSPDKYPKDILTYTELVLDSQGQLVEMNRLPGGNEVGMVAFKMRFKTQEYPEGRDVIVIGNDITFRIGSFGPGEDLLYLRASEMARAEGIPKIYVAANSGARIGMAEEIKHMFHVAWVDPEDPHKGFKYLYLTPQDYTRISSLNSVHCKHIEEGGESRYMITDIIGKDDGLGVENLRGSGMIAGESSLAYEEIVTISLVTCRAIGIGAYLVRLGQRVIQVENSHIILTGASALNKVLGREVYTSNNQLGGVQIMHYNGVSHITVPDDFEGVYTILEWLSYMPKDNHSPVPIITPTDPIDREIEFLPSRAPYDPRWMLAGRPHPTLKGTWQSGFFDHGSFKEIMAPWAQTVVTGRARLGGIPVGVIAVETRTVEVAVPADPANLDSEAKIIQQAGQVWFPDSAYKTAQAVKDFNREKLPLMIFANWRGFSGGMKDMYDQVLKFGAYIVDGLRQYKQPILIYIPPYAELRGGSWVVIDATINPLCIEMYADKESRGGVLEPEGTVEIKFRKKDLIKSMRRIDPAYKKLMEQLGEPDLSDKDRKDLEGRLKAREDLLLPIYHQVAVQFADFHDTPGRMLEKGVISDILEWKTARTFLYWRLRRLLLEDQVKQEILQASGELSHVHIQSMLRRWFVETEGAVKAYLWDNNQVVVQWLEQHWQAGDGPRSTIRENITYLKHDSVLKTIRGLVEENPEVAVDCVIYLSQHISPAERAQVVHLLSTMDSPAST
The experiment is described as follows: ACC2 assay, spectrophotometric 384 well assay (NADH-linked, coupled lactate dehydrogenase/pyruvate kinase). Format: biochemical. The settings on record: ACC2 assay, hACC2 construct lacking 128 N-terminal amino acids, 25° C., 340 nm; read-out: IC50. Summed up: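 Human ACC2 lacking N-terminal 128 aa, baculovirus/insect-cell expressed, anion-exchange purified; 100 mM Tris pH 7.5, 10 mM citrate, 25 mM KHCO3, 1% DMSO. Started with 200 μM NADH and acetyl-CoA plus 500 μM ATP; PK/LDH-coupled A340 decrease read 15 min at 25° C. IC50 by nonlinear fit of low-control-subtracted slopes.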
As to `CCOc1ccc(N2CCC(c3ccc([C@H](C)NC(C)=O)cc3)CC2)c(OCC)c1` [Example 1.42], the pIC50 is 6.20.
In the case of `COc1cc(N2CCC(c3ccc([C@H](C)NC(C)=O)cc3)CC2)ccc1Cl` [Example 1.162], the pIC50 is 5.51.
Take `COc1cc(N2CCC(c3ccc([C@H](C)NC(C)=O)cc3)CC2)ccn1` [Example 3.2]: the pIC50 was 6.48.
In the case of `CCOc1ccc(N2CCC(c3ccc([C@H](C)NC(=O)C4(C)COC4)cc3)CC2)cc1` [Example 6.27] it was 5.32; in that of `COc1cccc(-c2cnc(N3CCC(c4ccc([C@H](C)NC(C)=O)cc4)CC3)nc2)c1` [Example 10.3], 6.89; in that of `CC(=O)N[C@@H](C)c1ccc(C2CCN(c3ccnc(N4CCCCC4)n3)CC2)cc1` [Example 11.58], 6.59.
With `CC(=O)N[C@@H](C)c1ccc(C2CCN(c3ccnc(-c4ccc(C#N)s4)n3)CC2)cc1` [Example 22.5], the pIC50 was 6.03.
With `CC(=O)N[C@@H](C)c1ccc(C2CCN(c3cc(-c4ccccc4)ncn3)CC2)cc1` [Example 4.22], the pIC50 was 5.96.
In the case of `CCC(CC)Oc1nccc(N2CCC(c3ccc([C@H](C)NC(C)=O)cc3)CC2)n1` [Example 11.21] it was 6.05; in that of `CC(=O)N[C@@H](C)c1ccc(C2CCN(c3ncc(C(=O)N4CCCC4CN(C)C)cn3)CC2)cc1` (stereo partly drawn) [Example 18.88], 4.78.
For `CC(=O)N[C@@H](C)c1ccc(C2CCN(c3ncc(-c4ccc(C(F)(F)F)cc4)cn3)CC2)cc1` [Example 10.45], the pIC50 was 5.96.
In the case of `CC(=O)N[C@@H](C)c1ccc(C2CCN(c3ncc(C(=O)Nc4ccccc4C)cn3)CC2)cc1` [Example 18.7] it was 5.44; in that of `COc1cc(C)c(N2CCC(c3ccc([C@H](C)NC(C)=O)cc3)CC2)cn1` [Example 1.56], 6.14; in that of `C=CCOc1cccc(N2CCC(c3ccc([C@H](C)NC(C)=O)cc3)CC2)c1` [Example 9.5], 6.59.
Turning to `CCCOc1ccc(N2CCC(c3ccc([C@H](C)NC(C)=O)cc3)CC2)cn1` [Example 1.55], the pIC50 was 6.62.
Turning to `CC(=O)N[C@@H](C)c1ccc(C2CCN(c3nc4ccccc4nc3C)CC2)cc1` [Example 4.32], the pIC50 is 5.64.
Regarding `C[C@H](NC(=O)N(C)C)c1ccc(C2CCN(c3ncc(-c4ccc(F)cc4)cn3)CC2)cc1` [Example 10.108], the negative logarithm of the IC50 (pIC50) was 7.05.
On to `CCOc1ccc(N2CCC(c3ccc([C@H](C)NC(C)=O)cc3)CC2)cc1F` [Example 8.17], for which the pIC50 is 6.54.
Consider `CC(=O)N[C@@H](C)c1ccc(C2CCN(c3ccc(OC4CCCC4)c(C#N)c3)CC2)cc1` [Example 8.36], for which the pIC50 was 5.66.
In the case of `CC(=O)N[C@@H](C)c1ccc(C2CCN(c3ncc(C(=O)N4[C@@H]5CC[C@H]4C[C@@H](O)C5)cn3)CC2)cc1` [Example 18.36] it was 4.88; in that of `COc1ccc(CNC(=O)c2cnc(N3CCC(c4ccc([C@H](C)NC(C)=O)cc4)CC3)nc2)cc1` [Example 18.19], 4.69; in that of `CC(=O)N[C@@H](C)c1ccc(C2CCN(c3ncc(C(=O)NCc4ccccn4)cn3)CC2)cc1` [Example 18.13], 5.21.
As to `C[C@H](NC(=O)C1CC1)c1ccc(C2CCN(c3nc(N4CCCC4)ncc3C#N)CC2)cc1` [Example 11.122], the pIC50 was 5.85.
In the case of `CCOc1ccc(N2CCC(c3ccc([C@H](C)NC(=O)CC(N)=O)cc3)CC2)cc1` [Example 33.1, (S)—N-(1-{4-[1-(4-Ethoxyphenyl)piperidin-4-yl]phenyl}ethyl)malonamide] it was 5.77.
For `CCOc1ccc(N2CCC(c3ccc([C@H](C)NC(C)=O)cc3)CC2)nc1` [Example 5.1, (S)—N-{1-[4-(5′-Ethoxy-3,4,5,6-tetrahydro-2H-[1,2′]bipyridinyl-4-yl)-phenyl]-ethyl}-acetamide], the pIC50 is 6.70.
With `COCCNc1nccc(N2CCC(c3ccc([C@H](C)NC(C)=O)cc3)CC2)n1` [Example 11.64], the pIC50 was 4.75.
Regarding `CC(=O)N[C@@H](C)c1ccc(C2CCN(c3ccc(OCCC(C)C)cc3)CC2)cc1` [Example 9.20], the pIC50 is 7.05.
With `CCOc1ccc(-c2nccc(N3CCC(c4ccc([C@H](C)NC(C)=O)cc4)CC3)n2)cc1` [Example 22.6], the pIC50 is 5.92.
Regarding `CC(=O)N[C@@H](C)c1ccc(C2CCN(c3cc(N(C)CC4CC4)ncn3)CC2)cc1` [Example 11.91], the pIC50 is 6.36.
In the case of `CC(=O)N[C@@H](C)c1ccc(C2CCN(c3cc(OCC4CC4)ncn3)CC2)cc1` [Example 11.108] it was 6.96; in that of `COC(=O)c1cccc(N2CCC(c3ccc([C@H](C)NC(C)=O)cc3)CC2)c1` [Example 15.2], 6.46.
Take `C[C@H](NC(=O)C1CC1)c1ccc(C2CCN(c3ncc(-c4ccccc4)cn3)CC2)cc1` [Example 10.105]: the negative-log IC50 (pIC50) is 7.00.
In the case of `COc1cccc(N2CCC(c3ccc([C@H](C)NC(C)=O)cc3)CC2)n1` [Example 5.43] it was 6.20.
Take `CC(=O)N[C@@H](C)c1ccc(C2CCN(c3cccc4c3OCCO4)CC2)cc1` [Example 1.98]: the pIC50 is 6.33.
As to `CC(=O)N[C@@H](C)c1ccc(C2CCN(c3cc(NCCC(C)C)ncn3)CC2)cc1` [Example 11.70], the negative logarithm of the IC50 (pIC50) was 5.35.
For the molecule `COc1cnc(N2CCC(c3ccc([C@H](C)NC(C)=O)cc3)CC2)nc1` [Example 4.33], the pIC50 is 6.29.
Take `C[C@H](NC(=O)C1CC1)c1ccc(C2CCN(c3ccc4c(c3)OCCO4)CC2)cc1` [Example 1.19]: the pIC50 was 6.59.
For the molecule `CC(=O)N[C@@H](C)c1ccc(C2CCN(c3nccc(C(F)(F)F)n3)CC2)cc1` [Example 4.11], the pIC50 was 6.07.
In the case of `CC(=O)N[C@@H](C)c1ccc(C2CCN(c3ccc(-c4nc5ccccc5[nH]4)cn3)CC2)cc1` [Example 5.25] it was 5.62.
With `COc1cc(N2CCC(c3ccc([C@H](C)NC(C)=O)cc3)CC2)ccc1OCC1CCO1` (stereo partly drawn) [Example 8.49], the pIC50 is 4.58.
Turning to `CCOc1ncc(N2CCC(c3ccc([C@H](C)NC(=O)C4CC4)cc3)CC2)cn1` [Example 16.8], the pIC50 was 5.41.
`C=CCOc1ccc(N2CCC(c3ccc([C@H](C)NC(C)=O)cc3)CC2)cc1` [Example 9.22]: the pIC50 is 6.80.
Regarding `Cc1cc(OC2CC2)ccc1N1CCC(c2ccc([C@H](C)NC(=O)C3CC3)cc2)CC1` [Example 1.91], the pIC50 is 6.22.
Regarding `CC(=O)N[C@@H](C)c1ccc(C2CCN(c3cccc(C)n3)CC2)cc1` [Example 5.42], the pIC50 was 6.68.
With `CCC(=O)N[C@@H](C)c1ccc(C2CCN(c3ccc(OCC(C)C)cc3)CC2)cc1` [Example 1.149], the pIC50 was 6.85.
In the case of `COc1ccc(-c2cnc(N3CCC(c4ccc([C@H](C)NC(C)=O)cc4)CC3)nc2)cc1C` [Example 10.30], the pIC50 is 6.89.
With `CC(=O)N[C@@H](C)c1ccc(C2CCN(c3ccnc(OCC4CCCC4)n3)CC2)cc1` [Example 11.9], the pIC50 was 6.42.
Consider `COc1ccc(N2CCC(c3ccc([C@H](C)NC(C)=O)cc3)CC2)cc1C#N` [Example 8.45], for which the pIC50 was 5.15.
In the case of `CC(=O)N[C@@H](C)c1ccc(C2CCN(c3ncc(-c4ccc(C)cc4Cl)cn3)CC2)cc1` [Example 10.66], the pIC50 is 6.80.
Regarding `CC(=O)N[C@@H](C)c1ccc(C2CCN(c3ccc(OCC(C)C)cn3)CC2)cc1` [Example 5.4], the pIC50 was 7.05.
As for `COc1ccc(N2CCC(c3ccc([C@H](C)NC(C)=O)cc3)CC2)cc1OC` [Example 1.43], the pIC50 is 5.39.
In the case of `CCOc1ccc(N2CCC(c3ccc([C@H](C)NC(=O)C4CC4)cc3)CC2)nc1` [Example 5.58] it was 6.07; in that of `CCOc1ccc(N2CCC(c3ccc([C@H](C)NC(=O)N(C)CC4CC4)cc3)CC2)cc1` [Example 14.65], 5.43; in that of `CCNc1nccc(N2CCC(c3ccc([C@H](C)NC(C)=O)cc3)CC2)n1` [Example 11.50], 5.38.
Take `CC(=O)N[C@@H](C)c1ccc(C2CCN(c3ncc(C(=O)N(C)Cc4ccccn4)cn3)CC2)cc1` [Example 18.37]: the pIC50 was 5.19.
Turning to `CCOc1ccc(N2CCC(c3ccc([C@H](C)NC(=O)C4CC4)cc3)CC2)cc1` [Example 1.25], the pIC50 was 6.82.
In the case of `C[C@H](NC(=O)N(C)C)c1ccc(C2CCN(c3ncc(-c4ccccc4)cn3)CC2)cc1` [Example 10.111] it was 6.77; in that of `CC(=O)N[C@@H](C)c1ccc(C2CCN(c3ncc(-c4ccc(Cl)cc4)cn3)CC2)cc1` [Example 4.37], 6.52.
Turning to `CC(=O)N[C@@H](C)c1ccc(C2CCN(c3ccc(O)cc3)CC2)cc1` [Example 1.48, (S)—N-{1-(4-[1-(4-Hydroxyphenyl)-piperidin-4-yl]-phenyl}-ethyl)-acetamide], the pIC50 is 4.95.
In the case of `CC(=O)N[C@@H](C)c1ccc(C2CCN(c3ncc(-c4ccc5c(c4)OCO5)cn3)CC2)cc1` [Example 10.87] it was 7.15; in that of `CC(=O)N[C@@H](C)c1ccc(C2CCN(c3ccnc(Oc4ccccc4F)n3)CC2)cc1` [Example 11.26], 6.42.
For the molecule `CCC(C)Oc1cccc(N2CCC(c3ccc([C@H](C)NC(C)=O)cc3)CC2)c1` (stereo partly drawn) [Example 1.90], the pIC50 was 6.64.
On to `CNCCNC(=O)c1cnc(N2CCC(c3ccc([C@H](C)NC(C)=O)cc3)CC2)nc1` [Example 18.58], for which the pIC50 was 4.74.
Consider `CC(=O)N[C@@H](C)c1ccc(C2CCN(c3ccnc(N(C)C)n3)CC2)cc1` [Example 11.104], for which the pIC50 was 6.22.
On to `CCOC(=O)c1cnnc(N2CCC(c3ccc([C@H](C)NC(C)=O)cc3)CC2)c1` [Example 5.55], for which the pIC50 was 5.12.
In the case of `CC(C)COc1ccc(N2CCC(c3ccc([C@H](C)NC(=O)N(C)C)cc3)CC2)nc1` [Example 1.126] it was 6.64.
